# According to ChEMBL document CHEMBL1201862, “PubChem BioAssay data set” (2004):
# Activity calls are given as the source filed them.
# Tests used:
# [1] = biological target: T1, CAAX prenyl protease 2 (Homo sapiens, UniProt Q9Y256); test: inhibition of Ras-converting CAAX protease Rce1 – biochemical, yeast membranes, quenched-peptide fluorescence, cherry-pick, dose response (AID 588849)
# T1 sequence (Q9Y256 whole entry): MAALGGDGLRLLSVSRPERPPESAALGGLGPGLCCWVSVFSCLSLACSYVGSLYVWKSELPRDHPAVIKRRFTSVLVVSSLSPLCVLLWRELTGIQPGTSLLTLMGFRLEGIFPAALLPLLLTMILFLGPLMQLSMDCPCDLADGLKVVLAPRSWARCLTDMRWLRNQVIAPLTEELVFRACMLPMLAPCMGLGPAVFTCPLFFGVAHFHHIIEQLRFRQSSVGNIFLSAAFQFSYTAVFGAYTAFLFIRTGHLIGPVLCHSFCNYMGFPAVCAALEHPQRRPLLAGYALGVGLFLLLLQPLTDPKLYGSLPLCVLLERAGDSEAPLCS
# [2] = biological target: T2, CAAX prenyl protease 2 (Saccharomyces cerevisiae S288c, UniProt Q03530); assay type: biochemical
# T2 sequence (Q03530 whole entry): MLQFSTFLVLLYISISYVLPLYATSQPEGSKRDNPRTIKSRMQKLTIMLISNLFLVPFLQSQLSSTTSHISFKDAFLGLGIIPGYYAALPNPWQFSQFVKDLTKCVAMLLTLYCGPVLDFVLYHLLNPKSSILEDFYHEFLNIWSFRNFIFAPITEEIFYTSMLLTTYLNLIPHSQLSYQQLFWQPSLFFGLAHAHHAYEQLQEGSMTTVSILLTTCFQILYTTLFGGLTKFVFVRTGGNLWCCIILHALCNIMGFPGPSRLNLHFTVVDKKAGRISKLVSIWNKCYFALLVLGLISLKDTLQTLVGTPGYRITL
# [3] = toxicity toward cultured mammalian cells – cell-based, plate reader, cherry-pick samples, cytotoxicity control, dose response (AID 504397); assay type: functional
# [4] = test system: A-375; test: proliferation inhibition in MITF-low A375 cells – cell-based, cherry-pick samples, set 2, counter-screen for MITF modulator project, dose response (AID 540335); assay type: functional; details: Homo sapiens
# [5] = test system: BJ; test: BJ-TERT-LT-ST fibroblast viability loss – cell-based, RAS-independent, luminescence, dose response (AID 1935); assay type: functional; details: Homo sapiens;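 also: BJ fibroblasts immortalized with TERT plus LT and ST oncogenes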
# [6] = cells; assay type: functional, cell-based
# [7] = cells; assay type: functional, cell-based; remark: listed apart in the source
# [8] = test system: HT-1080; test: HT1080 cell viability loss – fluorescence readout (AID 620); assay type: functional, cell-based; details: Homo sapiens
# [9] = test system: BJ; test: cells; assay type: functional, cell-based; details: Homo sapiens
# [10] = Vero E6 cell cytotoxicity, dose response, cytotoxicity control for non-replicating M. tuberculosis project, secondary assay (AID 492998); assay type: functional, VeroE6; details: Vero C1008
# [11] = loss of viability in HepG2 cells – cell-based, CellTiter-Glo, cherry-picked, cytotoxicity control for Shn3 inhibitor project, dose response (AID 624134); assay type: functional
# [12] = reduction of Shn3 3'UTR-driven luciferase in osteoblasts – cell-based, Clone20 osteoblasts, firefly luciferase, cherry-picked, dose response (AID 624132); assay type: functional;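 also: firefly luciferase luminescence from reporter carrying the Shn3 3'UTR in osteoblasts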
# [13] = test system: BJ; test: BJ-TERT fibroblast viability loss – cell-based, RAS-independent, luminescence, dose response (AID 1933); assay type: functional; details: Homo sapiens
# [14] = biological target: T3, Microphthalmia-associated transcription factor (Homo sapiens, UniProt O75030); test: reducers of TRPM1 reporter luminescence, concentration series – cell-based, SK-MEL-5, cherry-picked, set 3, MITF inhibitor project, dose response (AID 493073); assay type: functional;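 also: SK-MEL-5 melanoma cells with luciferase driven by the MITF target TRPM1 promoter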
# T3 sequence (O75030 whole entry): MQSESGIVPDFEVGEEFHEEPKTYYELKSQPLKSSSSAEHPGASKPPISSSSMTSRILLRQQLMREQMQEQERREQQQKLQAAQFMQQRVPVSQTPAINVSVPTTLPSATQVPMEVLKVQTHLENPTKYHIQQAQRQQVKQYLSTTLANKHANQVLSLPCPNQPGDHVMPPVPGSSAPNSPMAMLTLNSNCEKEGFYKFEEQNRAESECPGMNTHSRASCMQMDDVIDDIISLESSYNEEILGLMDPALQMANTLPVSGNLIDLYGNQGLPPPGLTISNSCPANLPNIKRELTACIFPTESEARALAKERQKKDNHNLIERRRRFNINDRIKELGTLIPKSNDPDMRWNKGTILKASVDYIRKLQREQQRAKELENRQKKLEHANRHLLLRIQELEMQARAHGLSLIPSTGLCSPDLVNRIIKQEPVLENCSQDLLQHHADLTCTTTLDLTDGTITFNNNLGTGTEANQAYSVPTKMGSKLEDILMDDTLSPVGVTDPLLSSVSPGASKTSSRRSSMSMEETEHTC
# [15] = biological target: Nonstructural protein 1 (Influenza A virus, UniProt Q194T2); assay type: functional, Influenza A virus (A/California/07/2009(H1N1))
# Sequence of Nonstructural protein 1 (Q194T2 whole entry): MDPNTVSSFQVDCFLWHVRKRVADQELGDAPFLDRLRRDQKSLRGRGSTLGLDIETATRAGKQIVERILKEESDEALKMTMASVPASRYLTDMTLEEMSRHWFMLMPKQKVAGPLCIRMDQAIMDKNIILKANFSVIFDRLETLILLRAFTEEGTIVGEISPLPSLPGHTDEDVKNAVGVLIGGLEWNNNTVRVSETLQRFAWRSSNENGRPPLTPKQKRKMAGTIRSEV
# [16] = DRD fibroblast viability loss – cell-based, non-viral oncogenic, luminescence, dose response (AID 1934); assay type: functional; details: Homo sapiens
# [17] = test system: BJ; test: growth inhibition of engineered Ras-driven BJ cells – cell-based, alamar blue fluorescence, cherrypicked samples, dose response (AID 2631); assay type: functional; details: Homo sapiens;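 also: confirmatory dose-response assay in RAS-dependent BJ fibroblasts engineered with TERT, LT and ST, with cytotoxicity read by fluorescence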
# [18] = cells; assay type: functional
# [19] = biological target: Luciferin 4-monooxygenase (Photinus pyralis, UniProt P08659); test: Counter Screen for Luciferase-based Assay Positives. [Related pubchem assays: 620, 618, 411 ]
# Sequence of Luciferin 4-monooxygenase (P08659 whole entry): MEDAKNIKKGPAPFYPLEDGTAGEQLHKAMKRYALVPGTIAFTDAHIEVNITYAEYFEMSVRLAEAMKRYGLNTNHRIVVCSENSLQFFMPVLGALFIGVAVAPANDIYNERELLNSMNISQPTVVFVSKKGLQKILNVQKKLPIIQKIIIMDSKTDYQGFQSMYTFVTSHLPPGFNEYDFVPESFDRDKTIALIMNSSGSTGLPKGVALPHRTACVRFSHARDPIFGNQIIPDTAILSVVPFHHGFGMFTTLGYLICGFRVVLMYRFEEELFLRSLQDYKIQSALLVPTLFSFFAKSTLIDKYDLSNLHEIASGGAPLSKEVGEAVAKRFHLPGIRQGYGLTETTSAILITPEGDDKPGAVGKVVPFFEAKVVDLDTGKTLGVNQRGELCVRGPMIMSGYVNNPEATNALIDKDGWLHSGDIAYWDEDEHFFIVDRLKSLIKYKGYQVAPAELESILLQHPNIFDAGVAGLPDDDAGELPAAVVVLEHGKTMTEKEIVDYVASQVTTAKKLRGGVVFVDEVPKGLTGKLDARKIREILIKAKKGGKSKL
# [20] = non-specific 3'UTR reporter inhibition in Clone20-Shn3RL – cell-based, Renilla luciferase, cherry-picked, counter-screen for Shn3 inhibitor project, dose response (AID 624133); assay type: functional
# [21] = THP-1 cell cytotoxicity, dose response, cytotoxicity control for non-replicating M. tuberculosis project (AID 489025); assay type: functional
# [22] = HepG2 cell cytotoxicity, dose response, cytotoxicity control for non-replicating M. tuberculosis project (AID 489018); assay type: functional; details: Mycobacterium tuberculosis
# [23] = biological target: T4, Ubiquitin-conjugating enzyme E2 N (Homo sapiens, UniProt P61088); assay type: functional
# T4 sequence (P61088 whole entry): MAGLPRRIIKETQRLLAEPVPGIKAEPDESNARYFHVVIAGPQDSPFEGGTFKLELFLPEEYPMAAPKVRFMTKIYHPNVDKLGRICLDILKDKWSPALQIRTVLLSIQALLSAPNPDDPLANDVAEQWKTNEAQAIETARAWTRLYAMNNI
# [24] = biological target: T5, Bcl-2-related protein A1 (Mus musculus, UniProt Q07440); assay type: functional;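 also: confirmatory dose–response counterscreen on Bfl-1, used to check hits from a UBC13 polyubiquitin inhibitor campaign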
# T5 sequence (Q07440 whole entry): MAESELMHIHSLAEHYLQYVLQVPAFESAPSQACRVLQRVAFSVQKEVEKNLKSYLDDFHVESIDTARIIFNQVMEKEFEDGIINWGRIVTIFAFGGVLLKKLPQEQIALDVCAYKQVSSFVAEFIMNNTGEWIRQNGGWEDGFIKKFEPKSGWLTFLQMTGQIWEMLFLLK
# [25] = biological target: T4, Ubiquitin-conjugating enzyme E2 N; assay type: functional; remark: listed apart in the source
# [26] = biological target: T6, Voltage-gated N-type calcium channel alpha-1B subunit/Amyloid beta A4 precursor protein-binding family A member 1 (Homo sapiens, UniProt Q00975+Q02410); assay type: protein assay
# T6 sequence (Q00975 whole entry): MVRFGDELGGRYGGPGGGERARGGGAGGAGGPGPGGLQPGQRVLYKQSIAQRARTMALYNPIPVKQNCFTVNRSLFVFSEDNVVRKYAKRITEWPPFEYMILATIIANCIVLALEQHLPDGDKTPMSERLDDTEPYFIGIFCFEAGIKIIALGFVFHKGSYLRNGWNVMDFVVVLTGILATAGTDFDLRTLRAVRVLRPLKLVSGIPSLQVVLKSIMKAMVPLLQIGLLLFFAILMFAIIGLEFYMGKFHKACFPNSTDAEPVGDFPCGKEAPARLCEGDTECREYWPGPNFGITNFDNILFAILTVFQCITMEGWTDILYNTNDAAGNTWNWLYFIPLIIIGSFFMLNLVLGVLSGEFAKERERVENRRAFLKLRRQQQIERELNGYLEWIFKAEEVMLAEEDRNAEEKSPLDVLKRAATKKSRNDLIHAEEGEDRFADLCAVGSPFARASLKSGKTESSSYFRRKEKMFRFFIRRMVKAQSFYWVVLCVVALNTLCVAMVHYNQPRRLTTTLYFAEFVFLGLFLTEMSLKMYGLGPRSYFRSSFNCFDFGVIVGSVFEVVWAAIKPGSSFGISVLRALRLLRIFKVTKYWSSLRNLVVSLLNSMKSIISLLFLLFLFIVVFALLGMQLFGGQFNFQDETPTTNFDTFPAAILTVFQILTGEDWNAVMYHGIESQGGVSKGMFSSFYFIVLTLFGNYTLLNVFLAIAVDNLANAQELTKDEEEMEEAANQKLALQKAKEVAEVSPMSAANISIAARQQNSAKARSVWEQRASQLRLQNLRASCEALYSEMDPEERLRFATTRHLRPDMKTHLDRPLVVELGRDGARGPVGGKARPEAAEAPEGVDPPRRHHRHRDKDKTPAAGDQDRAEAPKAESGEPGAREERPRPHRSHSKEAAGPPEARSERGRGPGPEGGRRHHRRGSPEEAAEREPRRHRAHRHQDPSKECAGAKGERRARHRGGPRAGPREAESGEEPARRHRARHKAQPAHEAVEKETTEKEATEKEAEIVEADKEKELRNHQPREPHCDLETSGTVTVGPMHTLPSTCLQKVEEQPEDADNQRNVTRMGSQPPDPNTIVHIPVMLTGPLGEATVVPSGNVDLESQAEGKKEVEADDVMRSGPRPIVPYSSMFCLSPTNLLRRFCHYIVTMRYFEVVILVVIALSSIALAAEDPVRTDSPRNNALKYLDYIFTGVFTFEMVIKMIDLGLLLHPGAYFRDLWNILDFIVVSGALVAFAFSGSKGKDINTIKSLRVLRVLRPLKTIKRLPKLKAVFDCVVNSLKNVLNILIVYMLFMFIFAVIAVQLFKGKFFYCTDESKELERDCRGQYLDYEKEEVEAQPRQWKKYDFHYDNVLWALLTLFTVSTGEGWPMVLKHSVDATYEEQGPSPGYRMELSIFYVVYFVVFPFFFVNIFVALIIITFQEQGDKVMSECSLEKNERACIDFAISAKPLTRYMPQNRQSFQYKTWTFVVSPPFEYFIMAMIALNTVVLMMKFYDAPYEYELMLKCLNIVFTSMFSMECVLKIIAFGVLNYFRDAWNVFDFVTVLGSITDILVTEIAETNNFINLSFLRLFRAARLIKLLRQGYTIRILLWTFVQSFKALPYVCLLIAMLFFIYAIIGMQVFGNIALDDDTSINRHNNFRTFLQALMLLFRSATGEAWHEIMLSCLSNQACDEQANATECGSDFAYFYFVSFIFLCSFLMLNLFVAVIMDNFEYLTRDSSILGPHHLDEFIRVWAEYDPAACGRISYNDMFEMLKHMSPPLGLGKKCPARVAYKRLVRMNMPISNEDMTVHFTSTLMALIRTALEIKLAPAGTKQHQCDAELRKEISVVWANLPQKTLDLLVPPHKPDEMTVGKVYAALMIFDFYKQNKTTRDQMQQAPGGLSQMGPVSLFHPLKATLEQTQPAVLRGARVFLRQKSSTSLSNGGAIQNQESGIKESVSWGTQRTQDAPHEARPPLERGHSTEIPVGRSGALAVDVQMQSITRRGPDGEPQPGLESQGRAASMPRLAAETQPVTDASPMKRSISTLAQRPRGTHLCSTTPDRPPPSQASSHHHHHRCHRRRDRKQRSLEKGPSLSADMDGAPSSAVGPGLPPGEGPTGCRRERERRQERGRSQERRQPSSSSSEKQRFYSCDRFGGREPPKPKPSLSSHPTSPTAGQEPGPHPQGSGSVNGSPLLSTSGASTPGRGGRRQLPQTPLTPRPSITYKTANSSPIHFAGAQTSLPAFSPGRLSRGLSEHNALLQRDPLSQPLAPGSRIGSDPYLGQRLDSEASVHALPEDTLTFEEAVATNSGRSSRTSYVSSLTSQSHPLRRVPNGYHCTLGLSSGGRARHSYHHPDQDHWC
# T6 sequence (Q02410 whole entry): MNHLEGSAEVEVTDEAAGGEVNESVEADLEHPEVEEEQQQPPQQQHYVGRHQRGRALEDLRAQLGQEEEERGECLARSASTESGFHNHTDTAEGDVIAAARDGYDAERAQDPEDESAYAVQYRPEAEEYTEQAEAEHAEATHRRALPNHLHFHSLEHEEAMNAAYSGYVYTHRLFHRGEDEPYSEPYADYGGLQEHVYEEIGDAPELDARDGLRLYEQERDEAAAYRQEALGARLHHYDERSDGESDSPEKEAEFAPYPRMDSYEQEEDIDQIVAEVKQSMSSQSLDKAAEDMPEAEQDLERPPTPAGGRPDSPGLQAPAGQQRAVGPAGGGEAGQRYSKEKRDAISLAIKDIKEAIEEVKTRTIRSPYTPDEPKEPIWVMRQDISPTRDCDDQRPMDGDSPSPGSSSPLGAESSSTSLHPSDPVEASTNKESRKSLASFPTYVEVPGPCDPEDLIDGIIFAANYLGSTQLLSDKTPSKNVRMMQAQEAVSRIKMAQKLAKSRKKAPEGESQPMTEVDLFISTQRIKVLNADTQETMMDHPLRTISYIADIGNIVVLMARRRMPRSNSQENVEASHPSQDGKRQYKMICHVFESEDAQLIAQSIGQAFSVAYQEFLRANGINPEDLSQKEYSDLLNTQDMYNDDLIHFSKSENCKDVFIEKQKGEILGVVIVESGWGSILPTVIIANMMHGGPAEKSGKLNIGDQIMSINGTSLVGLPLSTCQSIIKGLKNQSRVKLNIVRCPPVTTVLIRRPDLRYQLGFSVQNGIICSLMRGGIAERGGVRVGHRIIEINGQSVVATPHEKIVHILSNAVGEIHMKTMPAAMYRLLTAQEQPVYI
# [27] = biological target: T7, Hexokinase HKDC1 (Homo sapiens, UniProt Q2TB90); test: activation of HKDC1 glucose phosphorylation – biochemical, W721R variant, dose response (AID 504730); assay type: functional
# T7 sequence (Q2TB90 whole entry): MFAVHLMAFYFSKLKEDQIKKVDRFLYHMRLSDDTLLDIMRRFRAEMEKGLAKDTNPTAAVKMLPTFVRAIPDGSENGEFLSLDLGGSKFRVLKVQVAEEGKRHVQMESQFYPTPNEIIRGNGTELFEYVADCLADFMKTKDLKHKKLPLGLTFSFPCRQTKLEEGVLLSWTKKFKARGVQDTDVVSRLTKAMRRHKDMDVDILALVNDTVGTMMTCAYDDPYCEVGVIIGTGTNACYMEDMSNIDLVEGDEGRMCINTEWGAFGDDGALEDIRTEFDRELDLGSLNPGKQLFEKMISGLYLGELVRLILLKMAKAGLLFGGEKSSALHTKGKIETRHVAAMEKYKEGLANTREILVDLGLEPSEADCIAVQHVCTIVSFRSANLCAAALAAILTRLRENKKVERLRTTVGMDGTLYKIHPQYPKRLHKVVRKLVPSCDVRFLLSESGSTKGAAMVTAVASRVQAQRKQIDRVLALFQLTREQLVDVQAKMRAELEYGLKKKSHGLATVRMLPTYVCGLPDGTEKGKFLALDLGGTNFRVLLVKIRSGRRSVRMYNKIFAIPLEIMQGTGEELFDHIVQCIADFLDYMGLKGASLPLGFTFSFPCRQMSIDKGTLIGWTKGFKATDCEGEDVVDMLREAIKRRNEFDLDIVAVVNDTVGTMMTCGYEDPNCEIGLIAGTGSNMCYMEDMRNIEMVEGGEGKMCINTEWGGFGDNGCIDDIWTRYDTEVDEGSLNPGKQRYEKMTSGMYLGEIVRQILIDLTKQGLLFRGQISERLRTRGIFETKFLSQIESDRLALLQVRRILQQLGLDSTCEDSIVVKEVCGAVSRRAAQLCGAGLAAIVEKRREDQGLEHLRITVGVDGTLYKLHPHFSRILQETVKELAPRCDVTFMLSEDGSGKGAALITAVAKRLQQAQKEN
# [28] = biological target: T6, Voltage-gated N-type calcium channel alpha-1B subunit/Amyloid beta A4 precursor protein-binding family A member 1; assay type: protein assay; remark: listed apart in the source
# [29] = alpha-synuclein stem-loop luciferase translation blockers – H4 neuroglioma cells, luminescence, confirmation (AID 1988); assay type: functional, cell-based
# [30] = biological target: T8, Mannose-6-phosphate isomerase (Homo sapiens, UniProt P34949); test: phosphomannose isomerase inhibition – biochemical, fluorescence intensity, confirmation (AID 1535)
# T8 sequence (P34949 whole entry): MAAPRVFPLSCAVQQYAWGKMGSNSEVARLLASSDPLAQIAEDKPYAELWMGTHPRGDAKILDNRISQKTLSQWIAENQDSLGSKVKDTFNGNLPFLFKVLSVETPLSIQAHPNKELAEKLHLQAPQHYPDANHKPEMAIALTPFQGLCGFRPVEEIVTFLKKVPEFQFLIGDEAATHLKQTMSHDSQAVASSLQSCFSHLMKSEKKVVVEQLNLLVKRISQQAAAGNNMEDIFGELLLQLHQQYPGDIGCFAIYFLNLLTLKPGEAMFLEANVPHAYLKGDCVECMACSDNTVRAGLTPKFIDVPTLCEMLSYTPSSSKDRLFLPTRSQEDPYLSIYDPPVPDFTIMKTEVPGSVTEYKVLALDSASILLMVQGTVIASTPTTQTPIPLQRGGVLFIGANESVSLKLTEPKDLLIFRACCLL
# [31] = biological target: Hexokinase-1 (Homo sapiens, UniProt P19367); test: HK1 enzyme activation by HKDC1 hits – biochemical, selectivity assay for HKDC1 activator project, dose response (AID 504762); assay type: functional
# Sequence of Hexokinase-1 (P19367 whole entry): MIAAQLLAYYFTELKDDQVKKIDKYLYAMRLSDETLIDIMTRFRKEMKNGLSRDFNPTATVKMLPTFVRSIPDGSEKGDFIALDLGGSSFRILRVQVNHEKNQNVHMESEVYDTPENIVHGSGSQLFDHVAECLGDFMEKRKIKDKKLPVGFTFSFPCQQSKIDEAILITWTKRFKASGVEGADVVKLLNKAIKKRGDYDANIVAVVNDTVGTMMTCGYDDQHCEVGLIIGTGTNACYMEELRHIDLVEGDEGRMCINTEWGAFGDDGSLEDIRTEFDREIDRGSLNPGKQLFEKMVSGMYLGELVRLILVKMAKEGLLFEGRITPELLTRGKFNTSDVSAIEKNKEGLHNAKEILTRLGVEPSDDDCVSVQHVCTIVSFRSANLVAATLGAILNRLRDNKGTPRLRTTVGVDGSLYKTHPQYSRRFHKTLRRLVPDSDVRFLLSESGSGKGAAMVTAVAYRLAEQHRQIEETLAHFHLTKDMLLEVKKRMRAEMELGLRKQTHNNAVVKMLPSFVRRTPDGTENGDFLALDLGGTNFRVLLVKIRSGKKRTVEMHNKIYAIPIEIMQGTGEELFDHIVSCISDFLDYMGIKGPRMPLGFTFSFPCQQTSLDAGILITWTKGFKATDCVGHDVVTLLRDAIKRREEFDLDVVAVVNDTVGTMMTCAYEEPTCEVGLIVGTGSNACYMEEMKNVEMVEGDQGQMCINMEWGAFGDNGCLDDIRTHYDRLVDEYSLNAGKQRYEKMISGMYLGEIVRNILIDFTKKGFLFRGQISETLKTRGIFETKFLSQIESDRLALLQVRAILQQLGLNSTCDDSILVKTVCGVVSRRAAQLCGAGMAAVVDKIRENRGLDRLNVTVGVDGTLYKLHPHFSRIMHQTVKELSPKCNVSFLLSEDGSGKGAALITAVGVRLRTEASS
# [32] = Luminescence Cell-Based Dose Response HTS to Identify Inhibitors of 5'UTR Stem-Loop Driven Prion Protein mRNA Translation in H4 Neuroglioblastoma Cells. [Related pubchem assays: 1827 (Project Summary), 1813 (Primary HTS)]; assay type: functional
# [33] = biological target: Eukaryotic translation initiation factor 4E (Mus musculus, UniProt P63073); test: blockers of eIF4G binding by eIF4E – biochemical, TR-FRET, dose response (AID 855); assay type: functional;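 also: potency for disrupting eIF4E binding to eIF4GI seen as loss of FRET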
# Sequence of Eukaryotic translation initiation factor 4E (P63073 whole entry): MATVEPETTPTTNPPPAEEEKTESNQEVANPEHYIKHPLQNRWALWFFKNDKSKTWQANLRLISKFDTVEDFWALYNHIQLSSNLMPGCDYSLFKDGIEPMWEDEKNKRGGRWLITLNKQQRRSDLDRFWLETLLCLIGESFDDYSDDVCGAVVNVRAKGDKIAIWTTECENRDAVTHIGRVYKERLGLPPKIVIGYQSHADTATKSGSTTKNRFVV
# [34] = luciferase reporter signal suppression in cells – H4 neuroglioma cells, luminescence, dose response (AID 1990); assay type: functional, cell-based
# [35] = biological target: T9, Phosphomannomutase 2 (Homo sapiens, UniProt O15305); test: Counter screen SAR assay for PMM2 inhibitors via a fluorescence intensity assay. [Related pubchem assays (depositor defined):AID1545, AID1574]
# T9 sequence (O15305 whole entry): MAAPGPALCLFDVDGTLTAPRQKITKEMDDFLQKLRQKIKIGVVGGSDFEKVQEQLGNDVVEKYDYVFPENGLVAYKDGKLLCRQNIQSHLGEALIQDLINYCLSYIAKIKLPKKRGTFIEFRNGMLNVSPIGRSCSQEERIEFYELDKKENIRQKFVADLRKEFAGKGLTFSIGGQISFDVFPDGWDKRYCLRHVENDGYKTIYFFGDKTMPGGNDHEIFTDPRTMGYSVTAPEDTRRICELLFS
# [36] = biological target: DNA dC->dU-editing enzyme APOBEC-3G (Homo sapiens, UniProt Q9HC16); test: Dose Response confirmation of small molecule APOBEC3G DNA Deaminase Inhibitors via a fluorescence-based single-stranded DNA deaminase assay. [Related pubchem assays (depositor defined):AID493012, AID493028]; assay type: functional
smiles,measurement,setting,value
Cc1cccc(OCCN2C(=O)C(=O)c3cc(C)ccc32)c1,AC50,[1],18.1 µM (active)
same,AC50,[2],1.11 µM (active)
same,AC50,[3],73.6 µM (active)
CN(C)c1nc(-c2ccccn2)nnc1-c1ccccc1,AC50,[4],39.3 µM (active)
same,EC50,[5],> 150 µM (inconclusive)
same,EC50,[6],> 350 µM (not active)
same,EC50,[7],7.46 µM (active)
same,EC50,[8],> 50 µM (not active)
same,EC50,[9],13.3 µM (inconclusive)
same,CC50,[10],5.38 µM (active)
same,AC50,[11],57.6 µM (active)
same,AC50,[12],3.3 µM (active)
same,EC50,[13],16.5 µM (inconclusive)
same,AC50,[14],6.17 µM (active)
same,IC50,[15],1.09 µM (active)
same,EC50,[16],17.5 µM (active)
same,EC50,[17],121 µM (inconclusive)
same,IC50,[18],6.05 µM (active)
same,EC50,[19],1.23 µM (active)
same,AC50,[20],8.3 µM (active)
same,CC50,[21],8.1 µM (active)
same,CC50,[22],19.8 µM (active)
CC(C)C[C@H](N)c1cn([C@@H](Cc2cc3ccccc3[nH]2)C(=O)N2CCNCC2)nn1,IC50,[23],14 µM (active)
same,IC50,[24],> 20 µM (inactive)
same,IC50,[25],15.8 µM (active)
Cc1ccc(/N=c2\ssnc2Cl)cc1,IC50,[26],2.85 µM (active)
same,EC50,[27],59 µM (inactive)
same,IC50,[28],9.27 µM (active)
same,EC50,[29],> 120 µM (not active)
same,IC50,[30],18.6 µM (active)
same,EC50,[31],53.2 µM (inactive)
same,EC50,[32],> 120 µM (not active)
same,IC50,[33],35.4 µM (inactive)
same,EC50,[34],> 120 µM (not active)
same,IC50,[35],> 100 µM (inactive)
same,IC50,[36],10.2 µM (active)
